Reference: patent US4174406A, “Terpenylaminoalkanol fish toxicants” (priority 1977, dated 1979)
Converted amounts (≈) assume the structure as drawn.

How the values were obtained:
Coho salmon = experiment: Laboratory fish toxicity test (Table 1); assay type: in vivo, Oncorhynchus kisutch; settings: tech, 12 C, soft water
Experimental: (§1) Fish were obtained from state and federal hatcheries and maintained prior to testing by a trained fish culturist. Fish of total length 2-5 cm were used in laboratory tests while for outdoor tests small fish (4-6 cm in length) and larger carp and buffalo (Ictiobus cyprinellus) were used.
(§2) In all tests 10 fish of each were exposed to selective concentrations of the toxicant. Mortalities were observed and recorded at 1,2 and 6 hours on the first day and once daily thereafter, during 96 hour exposure.
(§3) Laboratory tests were also conducted in soft water 12° C. wherein the toxicant was evaluated against fifteen species of fish including both cold and warm water varieties. In Table 1, the LC 50 toxicity values for N-(2-hydroxyethyl) digeranylamine is shown for various species. LC50 is defined as the amount (mg/liter) of toxicant required to kill 50 percent of the particular fish species at 95% confidence interval.

Goldfish = experiment: Laboratory fish toxicity test (Table 1); assay type: in vivo, Carassius auratus; settings: tech, 12 C, soft water
Experimental: as §1, §2, §3

Asiade clam = experiment: Static bioassay in invertebrates (Table 2); assay type: in vivo, Corbicula sp.; settings: tech, 17 C, limed spring water 22-36 mg/l hardness
Experimental: The effect of the various toxicants on common invertebrate species was determined in a static test conducted 17° C. The invertebrates tested were collected from natural populations or purchased from commercial suppliers. They were held in soft water in fiberglass tanks in the laboratory or in outdoor plastic swimming pools. Mortality was observed during holding, and only healthy organisms were used for the toxicity tests. At least 10 organisms of nine species were exposed to each concentration in static tests.

White sucker = experiment: Laboratory fish toxicity test (Table 1); assay type: in vivo, Catostomus commersoni; settings: tech, 12 C, soft water
Experimental: as §1, §2, §3

Black bullhead = experiment: Outdoor plastic pool test (Table 3); assay type: in vivo, Ictalurus melas; settings: for % kill: 96 hour, 50% formulation (hydrochloride salt)
Experimental: N-(2-hydroxyethyl) digeranylamine was tested as a selective fish toxicant in outdoor pools stocked with various fish species and lined with black plastic using 50% water soluble formulations (hydrochloride salt). The formulation was added to each of four pools of 4,000-liter capacity at concentrations of 0.10, 0.15, 0.20, and 0.30 mg/liter. Another pool containing the same number, size, and species of fish served as a control. The test water had algal blooms, a pH of about 8.5, and a total hardness of about 200 mg/liter as CaCo3. The temperature was cool enough (15°-16°C.) to permit the use of trout.
as §1, §2
Outdoor pool tests were conducted using 50% formulation of the toxicant N-(2-hydroxyethyl) digeranylamine as indicated in Example 8. […] If selective control of white sucker and common carp is desired in an environment which includes rainbow trout, one should employ an effective concentration of toxicant which is at least as great as 0.05 mg/liter but less than 0.1 mg/liter. As a practical fishery practice in the northern United States and Canada, rainbow trout are not usually stocked in bodies of water containing the common carp species; the habitat conditions including water temperature and available oxygen of these species are usually quite different. Common carp and rainbow trout have quite different oxygen and temperature requirements and these differences generally preclude both species cohabitating under natural conditions. In this case the useful range to control common carp and white sucker can be much broader, i.e. 0.1 to 0.3 mg/liter.

bluegill [1] = experiment: Toxicity to bluegill in waters of different hardness; assay type: in vivo, bluegill (Lepomis macrochirus)
Experimental: The selective toxicant, N-(2-hydroxyethyl)digeranylamine was evaluated against bluegill in waters of hardness of 12, 44, 170, and 300 p.p.m., total hardness as CaCo3. […] In contrast the specific aminoalkanols of this invention are selective to carp (Caprinus carpio) and effective in waters of high pH.

Bluegill [2] = experiment: Laboratory fish toxicity test (Table 1); assay type: in vivo, Lepomis macrochirus; settings: tech, 12 C, soft water
Experimental: as §1, §2, §3

Green sunfish = experiment: Laboratory fish toxicity test (Table 1); assay type: in vivo, Lepomis cyanellus; settings: tech, 12 C, soft water
Experimental: as §1, §2, §3

Fathead minnow = experiment: Laboratory fish toxicity test (Table 1); assay type: in vivo, Pimephales promelas; settings: tech, 12 C, soft water
Experimental: as §1, §2, §3

Rainbow trout = experiment: Laboratory fish toxicity test (Table 1); assay type: in vivo, Salmo gairdneri; settings: tech, 12 C, soft water
Experimental: as §1, §2, §3

Chinook salmon = experiment: Laboratory fish toxicity test (Table 1); assay type: in vivo, Oncorhynchus tschawytscha; settings: tech, 12 C, soft water
Experimental: as §1, §2, §3

## CC(C)=CCC/C(C)=C/CN(C/C=C(\C)CCC=C(C)C)CCO [N-(2-hydroxyethyl) digeranylamine]
Coho salmon; 3 hours
  LC50: 0.320 µg/mL (≈ 0.959 µM)
Coho salmon; 6 hours
  LC50: 0.240 µg/mL (≈ 0.72 µM)
Coho salmon; 24 hours
  LC50: 0.200 µg/mL (≈ 0.6 µM)
Coho salmon; 96 hours
  LC50: 0.142 µg/mL (≈ 0.426 µM)
Goldfish; 24 hours
  LC50: 0.961 µg/mL (≈ 2.88 µM)
Goldfish; 96 hours
  LC50: 0.290 µg/mL (≈ 0.869 µM)
Asiade clam; 28 hours
  LC50: 56.0 µg/mL (≈ 168 µM)
Asiade clam; 96 hours
  LC50: 9.60 µg/mL (≈ 28.8 µM)
White sucker; 3 hours
  LC50: 0.540 µg/mL (≈ 1.62 µM)
White sucker; 6 hours
  LC50: 0.136 µg/mL (≈ 0.408 µM)
White sucker; 24 hours
  LC50: 0.0690 µg/mL (≈ 0.207 µM)
Black bullhead; 0.10 mg/l
  % kill: 0%
Black bullhead; 0.15 mg/l
  % kill: 0%
Black bullhead; 0.20 mg/l
  % kill: 0%
Black bullhead; 0.30 mg/l
  % kill: 0%
Black bullhead; black bullhead, 0.3 mg/liter, 50% formulation
  survival (in words): complete survival
Bluegill [1]; total hardness 12 p.p.m. as CaCo3
  96-hour LC50: 0.84 µg/mL
Bluegill [1]; total hardness 44 p.p.m. as CaCo3
  96-hour LC50: 0.72 µg/mL
Bluegill [1]; total hardness 170 p.p.m. as CaCo3
  96-hour LC50: 0.46 µg/mL
Bluegill [1]; total hardness 300 p.p.m. as CaCo3
  96-hour LC50: 0.33 µg/mL
Bluegill [2]; 3 hours
  LC50: 1.56 µg/mL (≈ 4.68 µM)
Bluegill [2]; 6 hours
  LC50: 1.13 µg/mL (≈ 3.39 µM)
Bluegill [2]; 24 hours
  LC50: 0.720 µg/mL (≈ 2.16 µM)
Bluegill [2]; 96 hours, 5760 min
  LC50: 0.72 µg/mL (≈ 2.16 µM)
Bluegill [2]; 96 hours, listed as N-(2-hydroxyethyl) Digeranylamine, 5760 min
  LC50: 0.720 µg/mL (≈ 2.16 µM)
Green sunfish; 24 hours
  LC50: 0.640 µg/mL (≈ 1.92 µM)
Green sunfish; 96 hours
  LC50: 0.640 µg/mL (≈ 1.92 µM)
Fathead minnow; 6 hours
  LC50: 1.55 µg/mL (≈ 4.65 µM)
Fathead minnow; 24 hours
  LC50: 0.560 µg/mL (≈ 1.68 µM)
Fathead minnow; 96 hours
  LC50: 0.303 µg/mL (≈ 0.908 µM)
Rainbow trout; 3 hours
  LC50: 0.220 µg/mL (≈ 0.66 µM)
Rainbow trout; 6 hours
  LC50: 0.189 µg/mL (≈ 0.567 µM)
Rainbow trout; 24 hours
  LC50: 0.187 µg/mL (≈ 0.561 µM)
Rainbow trout; 96 hours
  LC50: 0.136 µg/mL (≈ 0.408 µM)
Chinook salmon; 3 hours
  LC50: 0.300 µg/mL (≈ 0.899 µM)
Chinook salmon; 6 hours
  LC50: 0.210 µg/mL (≈ 0.63 µM)
Chinook salmon; 24 hours
  LC50: 0.167 µg/mL (≈ 0.501 µM)
Chinook salmon; 96 hours
  LC50: 0.129 µg/mL (≈ 0.387 µM)
